Consider 2 compounds from the NIST ThermoML archive (doi:10.1016/j.jct.2007.09.001).

Numbers after ± are expanded uncertainties.

The conditions of the series: 298.15 K, Calvet calorimetry with correction to 298 K for gas heat capacity.

Turning to `Cc1cc(C)n(C)n1` [1,3,5-trimethylpyrazole], under “Crystal”, the “molar enthalpy of sublimation” value worked out at 14.7 ± 0.765 kcal/mol. Take `Cc1cc[nH]n1` [3-methylpyrazole]: the “molar enthalpy of vaporization” value (Liquid) was found to be 15.8 ± 0.956 kcal/mol.
